Read-outs that look alike come from different tables or passages of the source.
Experiments:
[1] = target: panel of 255 wild-type kinases (Homo sapiens, UniProt P29317); experiment: Kinase panel profiling at 1 µmol/L (MSA or IMAP), percentage inhibition; type: biochemical; conditions: kinase EPHA2; 1 µmol/L single concentration; read-out: %-inhibition at 1 µmol/L, EPHA2
[2] = target: panel of 255 wild-type kinases (Homo sapiens, UniProt Q9Y6M4); experiment: as above; type: biochemical; conditions: kinase CK1γ3; 1 µmol/L single concentration; read-out: %-inhibition at 1 µmol/L, CK1γ3
134 cancer cell lines = experiment: Cell viability assay (ATPlite, 72 hours), IC50 on cancer cell line panel

Cc1cc(Nc2ncnc3ccc(NC4=NC(C)(C)CO4)cc23)ccc1Oc1ccn2ncnc2c1 [tucatinib]
inhibition at 1 µM [1]: 2%
inhibition at 1 µM [2]: 11%
IC50 (134 cancer cell lines; HEC-6, read-out: IC50 in cell proliferation assay, HEC-6 cell line (EGFR p.A289V)): 14.8 µM
IC50 (134 cancer cell lines; Homo sapiens, 769-P, read-out: IC50 in cell proliferation assay, cell line 769-P): 20.2 µM
IC50 (134 cancer cell lines; Homo sapiens, 786-0, read-out: IC50 in cell proliferation assay, cell line 786-O): 21.3 µM
IC50 (134 cancer cell lines; Homo sapiens, A 172, read-out: IC50 in cell proliferation assay, cell line A-172): 17.4 µM
IC50 (134 cancer cell lines; Homo sapiens, A204, read-out: IC50 in cell proliferation assay, cell line A-204): 11.4 µM
IC50 (134 cancer cell lines; Homo sapiens, A498, read-out: IC50 in cell proliferation assay, cell line A-498): 20.4 µM
IC50 (134 cancer cell lines; Homo sapiens, A549, read-out: IC50 in cell proliferation assay, cell line A-549): 25.7 µM
IC50 (134 cancer cell lines; Homo sapiens, A704, read-out: IC50 in cell proliferation assay, cell line A-704): > 31.6 µM
IC50 (134 cancer cell lines; Homo sapiens, A-375, read-out: IC50 in cell proliferation assay, cell line A-375 (BRAF p.V600E)): 11.3 µM
IC50 (134 cancer cell lines; Homo sapiens, A-427, read-out: IC50 in cell proliferation assay, cell line A-427): 22.2 µM
IC50 (134 cancer cell lines; Homo sapiens, ACHN, read-out: IC50 in cell proliferation assay, cell line ACHN): 13.9 µM
IC50 (134 cancer cell lines; Homo sapiens, AN3-CA, read-out: IC50 in cell proliferation assay, cell line AN3-CA (FGFR2 p.N549K)): 24.5 µM
IC50 (134 cancer cell lines; Homo sapiens, ASPC1, read-out: IC50 in cell proliferation assay, cell line AsPC-1): > 31.6 µM
IC50 (134 cancer cell lines; Homo sapiens, AU565, read-out: IC50 in cell proliferation assay, cell line AU565 (ERBB2 amplification)): 0.125 µM
IC50 (134 cancer cell lines; Homo sapiens, BT-20, read-out: IC50 in cell proliferation assay, cell line BT-20): 28.8 µM
IC50 (134 cancer cell lines; Homo sapiens, BT-474, read-out: IC50 in cell proliferation assay, cell line BT-474 (ERBB2 amplification)): 0.029 µM
IC50 (134 cancer cell lines; Homo sapiens, BT-549, read-out: IC50 in cell proliferation assay, cell line BT-549): 15.9 µM
IC50 (134 cancer cell lines; Homo sapiens, BXPC-3, read-out: IC50 in cell proliferation assay, cell line BxPC-3): 12.6 µM
IC50 (134 cancer cell lines; Homo sapiens, C-33-A, read-out: IC50 in cell proliferation assay, cell line C-33 A): 0.412 µM
IC50 (134 cancer cell lines; Homo sapiens, CAL-27, read-out: IC50 in cell proliferation assay, cell line CAL-27): 13.7 µM
IC50 (134 cancer cell lines; Homo sapiens, CCF-STTG1, read-out: IC50 in cell proliferation assay, cell line CCF-STTG1): > 31.6 µM
IC50 (134 cancer cell lines; Homo sapiens, CCRF-CEM, read-out: IC50 in cell proliferation assay, cell line CCRF-CEM): 17.7 µM
IC50 (134 cancer cell lines; Homo sapiens, COLO 205, read-out: IC50 in cell proliferation assay, cell line COLO 205 (BRAF p.V600E)): 22.2 µM
IC50 (134 cancer cell lines; Homo sapiens, COLO-829, read-out: IC50 in cell proliferation assay, cell line COLO 829 (BRAF p.V600E)): 20.6 µM
IC50 (134 cancer cell lines; Homo sapiens, DLD-1, read-out: IC50 in cell proliferation assay, cell line DLD-1): 23.2 µM
IC50 (134 cancer cell lines; Homo sapiens, DU-4475, read-out: IC50 in cell proliferation assay, cell line DU4475 (BRAF p.V600E)): 10.7 µM
IC50 (134 cancer cell lines; Homo sapiens, Daoy, read-out: IC50 in cell proliferation assay, cell line Daoy): 30.2 µM
IC50 (134 cancer cell lines; Homo sapiens, DoTc2-4510, read-out: IC50 in cell proliferation assay, cell line DoTc2 4510): 5.59 µM
IC50 (134 cancer cell lines; Homo sapiens, EOL1, read-out: IC50 in cell proliferation assay, cell line EoL-1 (FIP1L1-PDGFRA)): 4.24 µM
IC50 (134 cancer cell lines; Homo sapiens, FaDu, read-out: IC50 in cell proliferation assay, cell line FaDu): 14.1 µM
IC50 (134 cancer cell lines; Homo sapiens, G-361, read-out: IC50 in cell proliferation assay, cell line G-361 (BRAF p.V600E)): 13.5 µM
IC50 (134 cancer cell lines; Homo sapiens, HCC827, read-out: IC50 in cell proliferation assay, cell line HCC827 (EGFR exon19del)): 2.38 µM
IC50 (134 cancer cell lines; Homo sapiens, HCC4006, read-out: IC50 in cell proliferation assay, cell line HCC4006 (EGFR exon19del)): 6.56 µM
IC50 (134 cancer cell lines; Homo sapiens, HCT-15, read-out: IC50 in cell proliferation assay, cell line HCT 15): 16.7 µM
IC50 (134 cancer cell lines; Homo sapiens, HCT-116, read-out: IC50 in cell proliferation assay, cell line HCT 116): 21.9 µM
IC50 (134 cancer cell lines; Homo sapiens, HEC-1, read-out: IC50 in cell proliferation assay, HEC-1 cell line): 13.9 µM
IC50 (134 cancer cell lines; Homo sapiens, HEC-1B, read-out: IC50 in cell proliferation assay, HEC-1-B cell line (EGFR p.A864V)): 1.62 µM
IC50 (134 cancer cell lines; Homo sapiens, HL-60, read-out: IC50 in cell proliferation assay, HL-60 cell line): 16.9 µM
IC50 (134 cancer cell lines; Homo sapiens, HT, read-out: IC50 in cell proliferation assay, HT cell line): 29.9 µM
IC50 (134 cancer cell lines; Homo sapiens, HT-1080, read-out: IC50 in cell proliferation assay, HT-1080 cell line): 17.2 µM
IC50 (134 cancer cell lines; Homo sapiens, Hs746T, read-out: IC50 in cell proliferation assay, Hs 746.T cell line (MET exon14skip + amplification)): 12.4 µM
IC50 (134 cancer cell lines; Homo sapiens, Hs-578T, read-out: IC50 in cell proliferation assay, Hs 578T cell line): 24.1 µM
IC50 (134 cancer cell lines; Homo sapiens, HuTu80, read-out: IC50 in cell proliferation assay, HuTu 80 cell line): 0.623 µM
IC50 (134 cancer cell lines; Homo sapiens, J82, read-out: IC50 in cell proliferation assay, J82 cell line): > 31.6 µM
IC50 (134 cancer cell lines; Homo sapiens, Jurkat E6.1, read-out: IC50 in cell proliferation assay, Jurkat E6.1 cell line): 14.7 µM
IC50 (134 cancer cell lines; Homo sapiens, K562, read-out: IC50 in cell proliferation assay, K-562 cell line): 8.53 µM
IC50 (134 cancer cell lines; Homo sapiens, KATO III, read-out: IC50 in cell proliferation assay, KATO III cell line (FGFR2 amplification)): 17.9 µM
IC50 (134 cancer cell lines; Homo sapiens, KG-1, read-out: IC50 in cell proliferation assay, KG-1 cell line (FGFR1OP2-FGFR1)): 16.2 µM
IC50 (134 cancer cell lines; Homo sapiens, KLE, read-out: IC50 in cell proliferation assay, KLE cell line): 4.74 µM
IC50 (134 cancer cell lines; Homo sapiens, KMS-11, read-out: IC50 in cell proliferation assay, KMS-11 cell line (FGFR3 p.Y373C)): 18.2 µM
IC50 (134 cancer cell lines; Homo sapiens, KU812, read-out: IC50 in cell proliferation assay, Ku812 cell line): 22.6 µM
IC50 (134 cancer cell lines; Homo sapiens, Kasumi 1, read-out: IC50 in cell proliferation assay, Kasumi-1 cell line (KIT p.N822K)): 24.3 µM
IC50 (134 cancer cell lines; Homo sapiens, LC-2-ad, read-out: IC50 in cell proliferation assay, LC-2/ad cell line (CCDC6-RET)): 22.5 µM
IC50 (134 cancer cell lines; Homo sapiens, LNCaP-Clone-FGC, read-out: IC50 in cell proliferation assay, LNCaP clone FGC cell line): 21.8 µM
IC50 (134 cancer cell lines; Homo sapiens, LS174T, read-out: IC50 in cell proliferation assay, LS174T cell line): 20.3 µM
IC50 (134 cancer cell lines; Homo sapiens, LS-411N, read-out: IC50 in cell proliferation assay, LS411N cell line (BRAF p.V600E)): 21.4 µM
IC50 (134 cancer cell lines; Homo sapiens, LoVo, read-out: IC50 in cell proliferation assay, LoVo cell line): 25.7 µM
IC50 (134 cancer cell lines; Homo sapiens, MCF7, read-out: IC50 in cell proliferation assay, MCF-7 cell line): 30.5 µM
IC50 (134 cancer cell lines; Homo sapiens, MDA-MB-231, read-out: IC50 in cell proliferation assay, MDA-MB-231 cell line): 22.5 µM
IC50 (134 cancer cell lines; Homo sapiens, MDA-MB-453, read-out: IC50 in cell proliferation assay, MDA-MB-453 cell line): 5.93 µM
IC50 (134 cancer cell lines; Homo sapiens, MDA-MB-468, read-out: IC50 in cell proliferation assay, MDA-MB-468 cell line): 8.88 µM
IC50 (134 cancer cell lines; Homo sapiens, MG-63, read-out: IC50 in cell proliferation assay, MG-63 cell line): 29.4 µM
IC50 (134 cancer cell lines; Homo sapiens, MIA PaCa-2, read-out: IC50 in cell proliferation assay, MIA PaCa-2 cell line): 18.3 µM
IC50 (134 cancer cell lines; Homo sapiens, MKN-45, read-out: IC50 in cell proliferation assay, MKN45 cell line (MET amplification)): 17.1 µM
IC50 (134 cancer cell lines; Homo sapiens, MOLM-13, read-out: IC50 in cell proliferation assay, MOLM-13 cell line (FLT3 ITD)): 14.3 µM

From PMC9516332 (Frontiers in Oncology, 2022)
